Assay results from patent US9314458B2, “Topical use of ingenol-3-angelate or a salt thereof to treat skin cancer” (LEO Laboratories Limited, priority 2000, dated 2016).

How the values were obtained:
[1] = tested on: HIV-1 LAI strain in U1 cells; assay: Activation of latent HIV from U1 cells (p24 ELISA); format: cell-based; settings: 20 hr culture
From the text: A latently HIV-1 infected cell line (U1), derived from the promonocytic cell line U937 after infection with HIV-1 LAI strain, was used in these experiments. In the absence of activation, no or little virus (measured as p24 production) is produced by the U1 cell line. Phorbol esters are known to activate virus production from these cells (Tobiume et al., 1998) and so TPA/PMA was used as a positive control in these experiments.
Supernatants were collected and viral replication monitored by determination of the amounts of HIV p24 gag protein in the culture supernatants by ELISA, using a NEN Life Science HIV-1 p24 ELISA kit. p24 values were calculated from OD values using a standard curve.

[2] = tested on: peripheral blood mononuclear cells; assay: Phagocytosis with fluorescent beads; format: cell-based; settings: 30 min, whole heparinized blood
Experimental: Phagocytosis by peripheral blood mononuclear cells (PBMCs) was assayed (Steinkamp et al., 1982) using 1 μm Fluoresbrite™ yellow-green fluorescent latex spheres (Polysciences, Inc., Warrington, Pa.). A sample of whole, heparinized blood was treated with drug and 5×10E7 fluorescent latex beads in 10 μL of PBS added per mL of suspension. Cells were incubated and maintained in suspension for 30 min by means of a shaker platform at 37° C. The stimulated and non-stimulated samples were then lysed to isolate PBMCs. The PBMCs were run on the flow cytometer measuring FITC (excitation at 488 nm, emission at 525±20 nm), gated for fluorescence (phagocytosed spheres) and light scatter (cell size).

CCCCCCCCCCCCCC(=O)O[C@@H]1[C@@H](C)[C@@]2(O)[C@@H](C=C(CO)C[C@]3(O)C(=O)C(C)=C[C@@H]23)C2C(C)(C)[C@@]21OC(C)=O (single isomer, unassigned) [TPA]
activation of HIV from U1 cells (p24 production) [1]: activated HIV from U1 cells
phagocytosis of fluorescent latex spheres in PBMCs [2]: stimulate phagocytosis
